Series [1] has as its system Rattus norvegicus. To be noted: oral.
For series [2], the system named is Rattus norvegicus. The note with it: oral. The source holds these as a separate data set.
A further series deals with Oryctolagus sp. The note with it: acute, dermal.
In series [3] the test system is Mus musculus. To be noted: chronic, M/F.
The test system of series [4] is Rattus norvegicus. To be noted: oral. The source holds these as a separate data set.
For series [5], the system named is Rattus norvegicus.
The subject of a further series is Canidae. To be noted: oral, M/F, Dog Other.
The test system of series [6] is Mus musculus. To be noted: short-term; duration: 14 days; oral; drinking water; M/F; B6C3F1; hepatic.
Series [7] deals with Rattus norvegicus. To be noted: subchronic; duration: 13 weeks; oral; drinking water; M/F; Sprague-Dawley; metabolic.
For series [8], the system named is Rattus norvegicus. The note with it: repeat dose other; oral.
[9] abbreviates: subchronic, duration: 90 days, diet, Sprague-Dawley.
The mark [10] stands for this setting: developmental, oral, F, reduced delayed hypersensitivity response.
Setting [11] is: chronic, duration: 2 years, diet, Increased mean blood sugar concentration + slight hypothermia.
[12] abbreviates: chronic, duration: 2 years, drinking water, M/F, Long-Evans, Whole Body Effects.
The mark [13] stands for this setting: short-term, duration: 28 days, gavage, M, Sprague-Dawley, Clinical Observation: Respiratory rate decrease, Incomplete eyelid opening SalivationSpontaneous locomotion decrease + Body Weight Changes: ….
The mark [14] stands for this setting: short-term, duration: 28 days, gavage, M, Sprague-Dawley, Clinical Observation: Spontaneous locomotion decrease, Respiratory rate decrease, Salivation + Body Weight Changes: decrease + Food ….
Where [15] appears, read: chronic, oral, M/F, reduced body weight.
Where [16] appears, read: subchronic, duration: 90 days, inhalation, M/F, nasal turbinates.
Setting [17] is: subchronic, oral, M/F, mortality and body weight loss.

For orientation: NOAEL means the highest dose or exposure tested at which no adverse effect was seen. One may read the LOAEL as the lowest dose or exposure tested at which an adverse effect was seen. For the molecule `Clc1cccc(Cl)c1Cl` [1,2,3-Trichlorobenzene], the NOAEL in the series with Rattus norvegicus [1] (developmental, duration: 10 days, gavage, Sprague-Dawley) was determined as 600 mg/kg-day; with Rattus norvegicus [1] (reproduction developmental, duration: 10 days, gavage, F, Sprague-Dawley) it was 150 mg/kg-day; with Rattus norvegicus [1] (setting [9]) it was 9.6 mg/kg-day; with Rattus norvegicus [2] (subchronic, duration: 13 weeks, diet, M, Sprague-Dawley, Whole Body Effects, Hepatic), 7.7 mg/kg-day. The LOAEL with Rattus norvegicus [1] (setting [9]) was found to be 96 mg/kg-day.

As usually defined, the LD50 is the dose expected to kill half of the subjects tested. As to `FC(F)(F)c1ccc(Cl)c(Cl)c1` [1,2-Dichloro-4-(trifluoromethyl)benzene], the LD50 is > 5000 mg/kg in the series with Oryctolagus sp.; 5000 mg/kg in the series on Oryctolagus sp. (occlusive); 1150 mg/kg in the series with Rattus norvegicus [1] (acute, CF Nelson). For the same molecule, the NOAEL was determined as 20 ppm with Rattus norvegicus [1] (short-term, duration: 28 days, diet, Sprague-Dawley) and 60 mg/kg-day in the series on Rattus norvegicus [2] (short-term, duration: 14 days, gavage, M/F, Albino CD).

With `CCC1CO1` (stereo not given) [1,2-Epoxybutane], in the series on Mus musculus [3] (duration: 2 years, inhalation, degenerative lesions of the nasal cavity), the LOAEL came to 147 mg/m3.

As for `ClCCCCl` [1,3-Dichloropropane], the NOAEL with Rattus norvegicus [2] (subchronic, duration: 90 days, gavage, M/F, Sprague-Dawley, Hepatic, Urinary) worked out at 50 mg/kg-day.

Take `Oc1ccc(Cl)cc1Cl` [2,4-Dichlorophenol]: the NOAEL in the series with Rattus norvegicus [4] (subchronic, duration: 90 days, diet, M/F, Fischer 344, Clinical Observation: Hunched posture Rough hair coats + Body Weight Changes: decrease + Food Consumption: decrease, (palatability decrease…) turned out to be 480 mg/kg-day. For the same molecule, the LOAEL in the series on Rattus norvegicus [5] (setting [10]) is 3 mg/kg-day; in the series on Rattus norvegicus [2] (subchronic, duration: 13 weeks, drinking water, M/F, Sprague-Dawley, Whole Body Effects), 3 mg/kg-day. Moreover, the NOEL in the series with Rattus norvegicus [5] (setting [10]) came out at 0.3 mg/kg-day.

Regarding `Cc1c(N)cccc1N` [2,6-Toluenediamine], the NOAEL in the series with Rattus norvegicus [2] (chronic, duration: 2 years, diet, M, Fischer 344, Whole Body Effects) was 25 mg/kg-day; with Rattus norvegicus [2] (chronic, duration: 91 days, diet, M, Fischer 344, Whole Body Effects), 62 mg/kg-day.

`O=[N+]([O-])c1cc(C(F)(F)F)ccc1Cl` [4-Chloro-3-nitrobenzotrifluoride] displayed an LOAEL in the series on Rattus norvegicus [2] (short-term, duration: 28 days, gavage, M, Sprague-Dawley) of 1 mg/kg-day.

Consider `CC(=O)c1ccccc1` [Acetophenone], for which the NOAEL in the series on Rattus norvegicus [5] (subchronic, oral, M/F, general toxicity) amounted to 423 mg/kg-day; in the series on Rattus norvegicus [2] (reproduction developmental, gavage, M/F, Sprague-Dawley) it was 225 mg/kg-day.

Take `Cc1ccc(N=CN(C)C=Nc2ccc(C)cc2C)c(C)c1` [Amitraz]: in the series on Canidae (setting [11]), the LEL came out at 1 mg/kg-day and the NOEL came out at 0.25 mg/kg-day.

`[Cl][Sb]([Cl])[Cl]` [Antimony trichloride] displayed an LOAEL with Rattus norvegicus [2] (setting [12]) of 0.35 mg/kg-day.

Regarding `[Sb]` [Antimony], the LOAEL with Rattus norvegicus [5] (chronic, oral, M/F, longevity, blood glucose, and cholesterol) is 0.35 mg/kg-day; with Rattus norvegicus [2] (setting [12]) it was 0.35 mg/kg-day. Besides, the NOAEL in the series on Mus musculus [6] is 99 mg/kg-day; in the series on Rattus norvegicus [7] it was 0.06 mg/kg-day.

Regarding `ClC(Cl)Br` [Bromodichloromethane], the NOAEL in the series on Rattus norvegicus [4] (setting [13]) and in the series on Rattus norvegicus [4] (setting [14]) was 40 mg/kg-day in each case. The NOEL in the series on Rattus norvegicus [4] (setting [13]) was < 40 mg/kg-day; with Rattus norvegicus [4] (setting [14]), < 40 mg/kg-day; in the series with Rattus norvegicus [4] (subchronic, duration: 13 weeks, gavage, M/F, Fischer 344, Deaths + Body Weight Changes: decrease + Histopathology: Liver/centrilobular-Degeneration Liver/bile duct -Hyperplasia Liver-Enlargement, …), 38 mg/kg-day. The molecule also returned an LOAEL in the series with Mus musculus [3] (oral, gavage, renal cytomegaly) of 25 mg/kg-day.

Regarding `[O]=[Cr][O][Cr]=[O]` [Chromium(III) oxide], the NOAEL with Rattus norvegicus [8] turned out to be 2740 mg/kg-day.

In turn, `Clc1ccc2oc3c(Cl)c(Cl)c(Cl)c(Cl)c3c2c1` [Dibenzofuran, 1,2,3,4,8-pentachloro-] had an NOAEL in the series on Rattus norvegicus [8] of 0.048 mg/kg-day.

For `c1ccc2c(c1)oc1ccccc12` [Dibenzofuran], the NOEL with Rattus norvegicus [4] (short-term, duration: 28 days, gavage, F, Sprague-Dawley, Clinical Observation: Locomotor activity decrease, Salivation Soiled perineal region + Body Weight Changes: decrease + Urinalysis: Volume …) was found to be 40 mg/kg-day. Moreover, the NOAEL with Rattus norvegicus [4] (short-term, duration: 28 days, gavage, M/F, Sprague-Dawley, Clinical Observation: Locomotor activity decrease, Salivation Soiled perineal region + Body Weight Changes: decrease + Urinalysis: Volume …) stood at 40 mg/kg-day. The LOAEL in the series with Rattus norvegicus [2] (chronic, duration: 200 days, diet, F, albino, Whole Body Effects) amounted to 12.3 mg/kg-day.

The molecule `O=C(O)C(Cl)Cl` [Dichloroacetic acid] returned an LOAEL in the series on Canidae (subchronic, lesions in testes, cerebrum, cerebellum, and liver) of 12.5 mg/kg-day.

As for `FC(F)(Cl)Cl` [Dichlorodifluoromethane], the LOAEL in the series on Rattus norvegicus [5] (setting [15]) stood at 150 mg/kg-day. For the same molecule, the NOAEL was found to be 15 mg/kg-day with Rattus norvegicus [5] (setting [15]) and 15 mg/kg-day in the series on Rattus norvegicus [2] (chronic, duration: 2 years, gavage, M/F, Crl:CD(SD), Whole Body Effects).

As for `ClCC1CO1` (stereo not given) [Epichlorohydrin], the LOAEL in the series on Rattus norvegicus [5] (setting [16]) is 95 mg/m3; in the series on Rattus norvegicus [2] (reproduction developmental, duration: 23 days, gavage, M, Long-Evans, reproductive), 6.25 mg/kg-day. In the series on Rattus norvegicus [5] (setting [16]), this molecule yielded an NOAEL of 19 mg/m3.

In the series with Rattus norvegicus [8], `CCOC(C)=O` [Ethyl acetate] had an LOAEL of 360 mg/kg-day and an NOAEL of 90 mg/kg-day. Moreover, in the series on Rattus norvegicus [5] (setting [17]), the LOAEL turned out to be 3600 mg/kg-day and the NOEL is 900 mg/kg-day.

These data come from EPA's ToxValDB 9.5.
